US7271195B2, “Carbonyl compounds as inhibitors of histone deacetylase for the treatment of disease” (Kalypsys, Inc., priority 2003, dated 2007)
Read-outs that look alike come from different tables or passages of the source.

What was measured:
[1] = tested on: T1, HDAC; assay: In vitro HDAC-inhibition assay (Fluor de Lys fluorescent substrate); format: biochemical; details: for IC50: in vitro HDAC enzyme source; for % Max Inhibition (in vitro): maximum inhibition
T1 construct: in vitro IC50; other: in vitro HDAC enzyme source
Protocol: In vitro HDAC-inhibition Assay:
This assay measures a compound's ability to inhibit acetyl-lysine deacetylation in vitro and was used as both a primary screening method as well as for IC50 determinations of confirmed inhibitors. The assay is performed in vitro using an HDAC enzyme source (e.g. partially purified nuclear extract or immunopurified HDAC complexes) and a proprietary fluorescent substrate/developer system (HDAC Quantizyme Fluor de Lys Fluorescent Activity Assay, BIOMOL). The assay is run in 1,536-well Greiner white-bottom plates using the following volumes and order of addition:
Step 1: Enzyme (2.5 ul) source added to plate (from refrigerated container) • Step 2: Compounds (50 nl) added with pin transfer device • Step 3: Fluor de Lys (2.5 ul) substrate added, incubate at RT, 30 minutes • Step 4: Developer (5 ul) solution is added (containing TSA), to stop reaction • Step 5: Plate Reader—data collection
The deacetylated fluorophore is excited with 360 nm light and the emitted light (460 nm) is detected on an automated fluorometric plate reader (Aquest, Molecular Devices).

[2] = tested on: HDAC in cells (cellular histone acetylation levels); assay: Cellular histone hyperacetylation assay (cytoblot), cellular HDAC inhibition; format: cell-based; details: for Cellular IC50 / IC50: "active" = inhibitory activity but cellular IC50 could not be determined; for Emax / % Max. Inhibition (cellular): maximum inhibition; for Emax: read-out: % Max. Inhibition (cellular)
Protocol: Cellular Histone Hyperacetylation Assays:
These two secondary assays evaluates a compound's ability to inhibit HDAC in cells by measuring cellular histone acetylation levels. The cytoblot facilitates quantitative EC50 information for cellular HDAC inhibition. Transformed cell lines (e.g. HeLa, A549, MCF-7) are cultured under standard media and culture conditions prior to plating.
Cells (approx. 2,500/well) are allowed to adhere 10-24 hours to wells of a 384-well Greiner PS assay plate in media containing 1-5% serum. Cells are treated with appropriate compound and specific concentrations for 0 to 24 hours. Cells are washed once with PBS (60 ul) and then fixed (95% ethanol, 5% acetic acid or 2% PFA) for 1 minute at RT (30 ul). Cells are blocked with 1% BSA for 1 hour and washed and stained with antibody (e.g. anti-Acetylated Histone H3, Upstate Biotechnology), followed by washing and incubation with an appropriate secondary antibody conjugated to HRP or fluorophore. For luminescence assays, signal is generated using Luminol substrate (Santa Cruz Biotechnology) and detected using an Aquest plate reader (Molecular Devices).

[3] = tested on: HDAC; details: published value for positive control; read-out: published in vitro IC50; cited from earlier work

SMILES | IC50 [1] [nM] | % Max Inhibition (in vitro) [1] [%] | Cellular IC50 [2] | IC50 [2] [nM] | Emax [2] [%] | % Max. Inhibition (cellular) [2] [%] | IC50 [3] [nM]
N#CSCC(=O)c1ccccc1 [Compound 1, 1-Phenyl-2-thiocyanato-ethanone] | 1000 to 10000 | >75 | active | – | – | – | –
N#CSCC(=O)c1ccc(F)c(F)c1 [Compound 2] | < 1000 | >75 | active | – | – | – | –
N#CSCC(=O)c1ccc(Cl)c(Cl)c1 [Compound 3] | < 1000 | >75 | – | 1000 to 10000 | 104 | – | –
Cc1cc(C(=O)CSC#N)ccc1Cl [Compound 4] | < 1000 | >75 | – | 1000 to 10000 | > 75 | – | –
N#CSCC(=O)c1ccc2c(c1)OCCO2 [Compound 5] | < 1000 | >75 | active | – | – | – | –
N#CSCC(=O)c1ccc(Cl)cc1 [Compound 6] | < 1000 | >75 | – | 1000 to 10000 | > 75 | – | –
CC(=O)Nc1ccc(C(=O)CSC#N)cc1 [Compound 7] | < 1000 | >75 | – | 1000 to 10000 | > 75 | – | –
N#CSCC(=O)c1cccc(Br)c1 [Compound 8] | < 1000 | >75 | active | – | – | – | –
COc1cccc(C(=O)CSC#N)c1 [Compound 9] | < 1000 | >75 | active | – | – | – | –
COc1ccc(C(=O)CSC#N)cc1 [Compound 10] | 1000 to 10000 | >75 | active | – | – | – | –
N#CSCC(=O)c1ccc(N2CCCC2)cc1 [Compound 11] | 1000 to 10000 | >50 | active | – | – | – | –
COc1ccc(C(=O)CSC#N)cc1OC [Compound 12] | 1000 to 10000 | >75 | – | – | – | – | –
CCN(CC)c1ccc(C(=O)CSC#N)cc1 [Compound 13] | 1000 to 10000 | >75 | active | – | – | – | –
O=C(CSC1=NCCS1)c1ccccc1 [Compound 14, 2-(4,5-Dihydro-thiazol-2-ylsulfanyl)-1-phenyl-ethanone] | > 10000 | >75 | – | > 10000 | < 50 | – | –
O=C(CSC1=NCCS1)c1ccc(Cl)c(Cl)c1 [Compound 15] | 1000 to 10000 | >75 | – | 1000 to 10000 | > 75 | – | –
O=C(CSC1=NCCS1)c1cccc(Br)c1 [Compound 16] | 1000 to 10000 | >75 | active | – | – | – | –
O=C(CSC1=NCCS1)c1ccc(Cl)cc1 [Compound 17] | > 10000 | >75 | active | – | – | – | –
O=C(CSC1=NCCS1)c1ccc(Br)cc1 [Compound 18] | > 10000 | >75 | active | – | – | – | –
O=C(CSC1=NCCS1)c1ccc2c(c1)OCCO2 [Compound 19] | > 10000 | >75 | – | 1000 to 10000 | > 50 | – | –
COc1cccc(C(=O)CSC2=NCCS2)c1 [Compound 20] | > 10000 | >75 | active | – | – | – | –

SMILES | IC50 [1] [nM] | % Max Inhibition (in vitro) [1] [%] | Cellular IC50 [2] | IC50 [2] [nM] | Emax [2] [%] | % Max. Inhibition (cellular) [2] [%] | IC50 [3] [nM]
CC(=O)Nc1ccc(C(=O)CSC2=NCCS2)cc1 [Compound 21] | > 10000 | >75 | – | 1000 to 10000 | > 75 | – | –
CCN(CC)c1ccc(C(=O)CSC2=NCCS2)cc1 [Compound 22] | > 10000 | <50 | – | 1000 to 10000 | < 50 | – | –
COc1ccc(C(=O)CSC2=NCCS2)cc1 [Compound 23] | > 10000 | >50 | active | – | – | – | –
O=C(CSC1=NCCS1)c1ccc(N2CCCC2)cc1 [Compound 24] | > 10000 | >50 | active | – | – | – | –
COc1ccc(C(=O)CSC2=NCCS2)cc1OC [Compound 25] | > 10000 | <50 | active | – | – | – | –
COc1ccc(S(=O)(=O)Nc2ccc(C(=O)CSC3=NCCS3)cc2)cc1OC [Compound 26, N-{4-[2-(4,5-Dihydro-thiazol-2-ylsulfanyl)-acetyl]-phenyl}-3,4-dimethoxy-benzenesulfonamide] | 1000 to 10000 | >75 | – | < 1000 | > 75 | – | –
O=C(CSC1=NCCS1)c1ccc(NS(=O)(=O)c2ccc(OC(F)(F)F)cc2)cc1 [Compound 27, N-{4-[2-(4,5-Dihydro-thiazol-2-ylsulfanyl)-acetyl]-phenyl}-4-trifluoromethoxy-benzenesulfonamide] | 1000 to 10000 | >75 | – | 1000 to 10000 | > 75 | – | –
CC(=O)Nc1ccc(S(=O)(=O)Nc2ccc(C(=O)CSC3=NCCS3)cc2)cc1 [Compound 29, N-(4-{4-[2(4,5-Dihydro-thiazol-2-ylsulfanyl)-acetyl]-phenylsulfamoyl}-phenyl)-acetamide] | 1000 to 10000 | >75 | – | 1000 to 10000 | > 75 | – | –
COc1ccc(S(=O)(=O)Nc2cccc(C(=O)CSC3=NCCS3)c2)cc1OC [Compound 30] | 1000 to 10000 | >75 | – | 1000 to 10000 | > 75 | – | –
O=C(CSC1=NCCS1)c1cccc(NS(=O)(=O)c2ccc(OC(F)(F)F)cc2)c1 [Compound 31] | 1000 to 10000 | >75 | – | 1000 to 10000 | > 75 | – | –
O=C1CSC(SCC(=O)c2ccccc2)=N1 [Compound 32] | < 1000 | >75 | – | > 10000 | > 50 | – | –
O=C1CSC(SCC(=O)c2ccc(Br)cc2)=N1 [Compound 33] | < 1000 | >75 | – | > 10000 | > 75 | – | –
O=C1CSC(SCC(=O)c2ccc3c(c2)OCCO3)=N1 [Compound 34, 2-[2-(2,3-Dihydro-benzo[1,4]dioxin-6-yl)-2-oxo-ethylsulfanyl]-thiazol-4-one] | < 1000 | >75 | – | 1000 to 10000 | > 75 | – | –
O=C(CS)c1ccc(Br)cc1 [Compound 41, 1-(4-Bromo-phenyl)-2-mercapto-ethanone] | < 1000 | >75 | active | – | > 75 | – | –
COc1cccc(C(=O)CS)c1 [Compound 42] | 1000 to 10000 | >75 | – | > 10000 | > 75 | – | –
O=C(CSSCC(=O)c1ccc(NS(=O)(=O)c2ccc(OC(F)(F)F)cc2)cc1)c1ccc(NS(=O)(=O)c2ccc(OC(F)(F)F)cc2)cc1 [Compound 47, Thioacetic acid S-{2-oxo-2-[4-(4-trifluoromethoxy-benzenesulfonylamino)-phenyl]-ethyl}disulfide] | < 1000 | >75 | – | < 1000 | > 75 | – | –
CC(=O)SCC(=O)c1ccc(NS(=O)(=O)c2ccc(OC(F)(F)F)cc2)cc1 [Compound 48, Thioacetic acid S-{2-oxo-2-[4-(4-trifluoromethoxy-benzenesulfonylamino)-phenyl]-ethyl}ester] | < 1000 | >75 | – | < 1000 | > 75 | – | –
C[C@@H]1NC(=O)[C@H]2CCCN2C(=O)[C@H](CCCCCC(=O)[C@@H]2CO2)NC(=O)[C@@H](C)NC1=O [HC-toxin, reference compound] | < 1000 | >75 | – | – | – | – | –
Nc1ccccc1NC(=O)c1ccc(CNC(=O)OCc2cccnc2)cc1 [MS-275, reference compound] | > 10000 | >50 | – | 1000 to 10000 | – | >75 | –
CC(/C=C/C(=O)NO)=C\[C@@H](C)C(=O)c1ccc(N(C)C)cc1 [TSA, reference compound] | < 1000 | 100 | – | < 1000 | – | 100 | 3 to 6
